Patent publication US20230219961A1, “Pyridine acetamide derivative serving as CDK inhibitor, and preparation method therefor and use thereof” (Suzhou AlphaMa Biotechnology Co., Ltd., priority 2020, published 2023)

Assays:
CDK9 = biological target: T1, CDK9 (Homo sapiens, UniProt P50750); assay: Inhibitory effect on the kinase activity of CDK9 in vitro (Caliper); type: biochemical; conditions: 10 uM ATP, 0.2 ug/uL CTD3 peptide; read-out: CDK 9 IC50
T1 construct: purchased Millipore 14-685 M
Description: (§1) The detection of the inhibitory effect of the compounds of the present disclosure on the kinase activity of CDK7/CDK9 in vitro was determined by the following method:
(§2) 1) The compound was accurately weighed and dissolved in DMSO (Sigma, D2650) to a concentration of 100 mM for later use. The compound was diluted to 5-fold of a desired highest concentration, and diluted 4-fold into 6 concentration gradients, allowing the final concentration of the compound in the reaction system to be CDK7: 3000, 750, 188, 47, 12, 3 nM; CDK9: 100, 25, 6.25, 1.56, 0.39, 0.098 nM. 5 ul was taken to a 384-well plate (Corning, 4512).
(§3) 2) Kinase reaction: 10uL protein kinase (CDK7: Eurofilns,14-476 M; CDK9: Millipore,14-685 M) solution was added to the 384-well plate (Corning, 4512) containing the compound, and allowed to stand at room temperature for 10 min; a mixed solution of ATP(Sigma, A7699) and substrate polypeptide (CDK7: 77 uM ATP&0.2ug/uL CTD3 peptide (GL Biochem,SY356885); CDK9: 10 uM ATP&0.2 ug/uL CTD3 peptide (GL Biochem,SY356885)) was added, and allowed to stand at 28° C. for a short time; and then a stop solution was added to terminate the reaction at 25 uL per well.
(§4) 3) Detection: Data was collected by Caliper.
(§5) 4) Calculation: The IC50 value was calculated by Graphpad prism 5.0 software according to the concentration of the compound and the corresponding signal value.

RNA pol II Ser5 = assay: CDK7 signaling pathway in Mv4-11 cells: phosphorylation of RNA pol II Ser5 (SDS-PAGE/blot); type: cell-based; conditions: 6 hours, FIG. 1
Description: (§6) The inhibition effect of the compounds of the present disclosure on CDK7/CDK9 protein downstream RNA pol II Ser ⅖ in Mv4-11 cells in vitro was determined by the following method:
(§7) 1) Cell inoculation: Mv4-11 cells with good growing state in logarithmic growth phase were inoculated into a six-well plate with 2^∗10^5 cells/well, and cultured overnight at 37° C. and under 5% CO2 condition.
(§8) 2) Administration: The compound was diluted with 2 mL of 1640 medium containing 10% FBS and 1% PS. […] of the medium containing the compound was added to the overnight cultured cells, and it was placed in a 37° C., 5% CO2 cell incubator for 6 hours.
(§9) 3) Protein extraction and quantification: Cell suspension was collected and centrifuged at 1000 g for 5 min, the cell culturing medium was discarded, and PBS was added for resuspension and centrifugation; it was repeated three times, the residual liquid was sucked dry, 80 uL cell lysate was added per well, it was placed to ice, shaked for 10 min on a shaker and centrifuged at 12000 g for 5 min, and the supernatant, ie, the total protein solution, was collected; the protein concentration was tested by BCA.
(§10) 4) 12% SDS-PAGE electrophoresis was used to detect, after that trarsmembran was carried out at 100 V voltage for 3 h, blocking solution (Beyotime: P0235) was used to block for 15 min, TBST(Sangon Biotech: C520002) was used to wash the membrane three times, and the primary antibody (target protein CST:13499, internal reference Beyotime: AF1186) was incubated at 4° C. overnight; the membrane was washed with TBST three times; the secondary antibody (Beyotime: A0208) was incubated at room temperature for 1 hour; the membrane was washed with TBST three times; ECL (Tanon: 180-501) was used for exposure and coloration.

Mv4-11 cells = assay: Inhibition of the proliferation of Mv4-11 cells (CCK8); type: cell-based; conditions: Homo sapiens, MV4-11, 48 h
Description: The inhibition effect of the compounds of the present disclosure on the proliferation of Mv4-11 cells (ATCC:CRL-9591™) in vitro was determined by the following method:
1) Cell inoculation: Mv4-11 cells with good growing state in logarithmic growth phase were inoculated into a 96-well plate at 20000 cells per well and 50 uL, and cultured at 37° C. and under 5% CO2 condition for 2-4 h.
2) Administration: The compound was diluted with 1640 medium containing 10% FBS and 1% PS: 0.4 uL of the compound with an initial concentration of 1 mM was placed in a dilution plate, each added with 199.6 uL of the above culture medium, and gradiently diluted 4-fold, so that the final concentration in the added cell was 1000, 250, 62.5, 15.625, 3.91, 0.98, 0.24, 0.06 nM. 50 µL of the medium containing the compound was sequentially added, and it was placed in a 37° C., 5% CO2 cell incubator for 48 hours.
3) Detection: 10uL CCK8 (Dojindo, CK 04) solution was added to each well, incubated in 37° C. 5% CO2 cell incubator for 2 hours, and then the OD450 value was read by Synegry H1(BioTek) multimode microplate reader.
4) Calculation: The IC50 value was calculated using Graphpad prism 5.0 software according to the concentration of the compound and the corresponding signal value.

CDK7 = biological target: T2, CDK7 (Homo sapiens, UniProt P50613); assay: Inhibitory effect on the kinase activity of CDK7 in vitro (Caliper); type: biochemical; conditions: 77 uM ATP, 0.2 ug/uL CTD3 peptide; read-out: CDK 7 IC50
T2 construct: purchased Eurofilns (sic; Eurofins) 14-476 M
T2 sequence (P50613 whole entry): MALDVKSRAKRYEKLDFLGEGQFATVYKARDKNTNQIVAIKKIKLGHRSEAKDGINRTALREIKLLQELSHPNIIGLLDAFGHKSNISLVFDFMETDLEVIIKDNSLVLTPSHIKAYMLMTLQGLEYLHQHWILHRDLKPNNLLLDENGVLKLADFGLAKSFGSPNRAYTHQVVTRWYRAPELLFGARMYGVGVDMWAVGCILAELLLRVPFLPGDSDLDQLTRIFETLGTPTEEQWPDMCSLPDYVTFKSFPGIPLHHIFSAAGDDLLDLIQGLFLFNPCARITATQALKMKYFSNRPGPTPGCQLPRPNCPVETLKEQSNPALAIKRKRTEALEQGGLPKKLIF
T2 sequence (P51946 whole entry partner): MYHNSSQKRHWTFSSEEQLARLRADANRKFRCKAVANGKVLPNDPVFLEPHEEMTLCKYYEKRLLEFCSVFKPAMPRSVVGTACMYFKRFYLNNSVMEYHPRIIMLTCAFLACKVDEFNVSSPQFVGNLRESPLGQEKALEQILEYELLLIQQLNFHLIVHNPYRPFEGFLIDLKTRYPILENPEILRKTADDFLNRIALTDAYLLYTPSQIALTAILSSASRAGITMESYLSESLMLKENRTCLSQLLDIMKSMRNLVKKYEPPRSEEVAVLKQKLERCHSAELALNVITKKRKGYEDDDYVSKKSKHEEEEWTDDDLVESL
T2 sequence (P51948 whole entry partner): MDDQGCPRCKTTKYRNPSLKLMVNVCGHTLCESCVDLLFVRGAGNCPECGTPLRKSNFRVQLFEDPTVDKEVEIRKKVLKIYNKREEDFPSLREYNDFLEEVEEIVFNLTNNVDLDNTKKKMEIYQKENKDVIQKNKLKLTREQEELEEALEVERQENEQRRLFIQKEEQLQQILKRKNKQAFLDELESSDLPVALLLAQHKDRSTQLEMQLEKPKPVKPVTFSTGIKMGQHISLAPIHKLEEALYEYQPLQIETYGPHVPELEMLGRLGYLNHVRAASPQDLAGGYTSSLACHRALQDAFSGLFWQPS
Description: as §1, §2, §3, §4, §5

RNA pol II Ser2 = assay: CDK9 signaling pathway in Mv4-11 cells: phosphorylation of RNA pol II Ser2 (SDS-PAGE/blot); type: cell-based; conditions: 6 hours, FIG. 1
Description: as §6, §7, §8, §9, §10

T1 sequence (P50750 whole entry): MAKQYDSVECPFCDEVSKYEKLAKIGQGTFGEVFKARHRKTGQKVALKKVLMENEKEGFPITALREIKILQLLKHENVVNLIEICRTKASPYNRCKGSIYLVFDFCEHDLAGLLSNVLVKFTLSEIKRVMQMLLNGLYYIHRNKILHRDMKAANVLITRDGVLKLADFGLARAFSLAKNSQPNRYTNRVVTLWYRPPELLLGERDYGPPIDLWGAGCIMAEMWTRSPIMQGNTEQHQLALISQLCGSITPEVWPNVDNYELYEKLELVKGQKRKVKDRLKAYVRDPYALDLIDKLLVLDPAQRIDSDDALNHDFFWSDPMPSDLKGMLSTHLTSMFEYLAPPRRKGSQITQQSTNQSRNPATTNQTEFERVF
T1 sequence (O60563 whole entry partner): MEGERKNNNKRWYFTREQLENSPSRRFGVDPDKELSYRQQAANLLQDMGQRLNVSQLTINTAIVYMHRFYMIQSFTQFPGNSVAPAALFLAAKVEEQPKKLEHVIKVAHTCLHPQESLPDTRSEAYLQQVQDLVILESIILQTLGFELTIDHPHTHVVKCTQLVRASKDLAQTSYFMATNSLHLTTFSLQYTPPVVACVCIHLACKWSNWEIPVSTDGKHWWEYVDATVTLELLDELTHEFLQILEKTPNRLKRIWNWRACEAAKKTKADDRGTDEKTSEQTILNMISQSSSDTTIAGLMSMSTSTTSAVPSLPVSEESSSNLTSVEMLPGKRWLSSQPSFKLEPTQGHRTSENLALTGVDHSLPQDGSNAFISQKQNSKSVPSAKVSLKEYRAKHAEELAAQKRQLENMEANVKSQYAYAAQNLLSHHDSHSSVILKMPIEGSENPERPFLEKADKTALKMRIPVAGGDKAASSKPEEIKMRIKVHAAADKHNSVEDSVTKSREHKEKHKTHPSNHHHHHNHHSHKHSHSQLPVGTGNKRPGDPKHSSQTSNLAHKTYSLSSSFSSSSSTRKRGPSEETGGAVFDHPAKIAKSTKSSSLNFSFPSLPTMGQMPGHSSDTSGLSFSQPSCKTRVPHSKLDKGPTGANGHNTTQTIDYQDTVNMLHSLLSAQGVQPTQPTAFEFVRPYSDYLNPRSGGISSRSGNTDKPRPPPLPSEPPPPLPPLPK

C[C@@H](C(=O)Nc1cc(-c2cnn3c2CC(C)(C)C3)c(Cl)cn1)c1cccc(C(N)=O)c1 [Compound 2-2, (R)-3-(1-((5-chloro-4-(5,5-dimethyl-5,6-di hydro-4H-pyrrolo[1,2-b]pyrazol-3-yl)pyridin-2-yl)amino)-1-oxopropan-2-yl)benzamide (assumed)] was tested, and the IC50 (CDK9) was 2.7 nM, the “inhibitory effect on the phosphorylation of the CDK7 protein downstream RNA pol II Ser5” value (RNA pol II Ser5) was “significant inhibitory effect” and the IC50 (Mv4-11 cells) was 1.6 nM. The IC50 (CDK7) was 19 nM and the “inhibitory effect on the phosphorylation of CDK9 protein downstream RNA pol II Ser2” value (RNA pol II Ser2) was “significant inhibitory effect”.

CNC(=O)c1cccc(CC(=O)Nc2cc(-c3cnn4c3CC(C)(C)C4)c(Cl)cn2)c1 [Compound 3, 3-(2-((5-chloro-4-(5,5-dimethyl-5,6-dihydro-4H-pyrrolo[1,2-b]pyrazol-3-yl)pyridin-2-yl)amino)-2-oxoethyl)-N-methylbenzamide] was tested, and the IC50 (CDK9) was 4 nM, the “inhibitory effect on the phosphorylation of the CDK7 protein downstream RNA pol II Ser5” value (RNA pol II Ser5) was “significant inhibitory effect” and the IC50 (Mv4-11 cells) was 3.9 nM. It also gave an IC50 (CDK7) of 103 nM.

For C[C@@H](C(=O)Nc1cc(-c2cnn3c2CC(C)(C)C3)c(Cl)cn1)c1cccnc1 [Compound 11-2, (R)-N-(5-chloro-4-(5,5-dimethyl-5,6-dihydro-4H-pyrrolo[1,2-b]pyrazol-3-yl)pyridin-2-yl)-2-(pyridin-3-yl)propionamide (assumed)], the IC50 (CDK9) was 2.9 nM, the “inhibitory effect on the phosphorylation of the CDK7 protein downstream RNA pol II Ser5” value (RNA pol II Ser5) was “significant inhibitory effect” and the IC50 (Mv4-11 cells) was 13 nM. The “inhibitory effect on the phosphorylation of CDK9 protein downstream RNA pol II Ser2” value (RNA pol II Ser2) was “significant inhibitory effect”.

For C[C@H](C(=O)Nc1cc(-c2cnn3c2CC(C)(C)C3)c(Cl)cn1)c1cccc(C#N)n1 [Compound 13-1, (S)-N-(5-chloro-4-(5,5-dimethyl-5,6-dihydro-4H-pyrrolo[1,2-b]pyrazol-3-yl)pyridin-2-yl)-2-(6-cyanopyridin-2-yl)propionamide (assumed)], the IC50 (CDK9) was 44.4 nM, the IC50 (Mv4-11 cells) was 148 nM and the “inhibitory effect on the phosphorylation of CDK9 protein downstream RNA pol II Ser2” value (RNA pol II Ser2) was “significant inhibitory effect”.

In the case of C[C@@H](C(=O)Nc1cc(-c2cnn3c2CC(C)(C)C3)c(Cl)cn1)c1cccc(C#N)n1 [Compound 13-2, (R)-N-(5-chloro-4-(5,5-dimethyl-5,6-dihydro-4H-pyrrolo[1,2-b]pyrazol-3-yl)pyridin-2-yl)-2-(6-cyanopyridin-2-yl)propionamide (assumed)], the IC50 (CDK9) is reported as 3 nM, the “inhibitory effect on the phosphorylation of the CDK7 protein downstream RNA pol II Ser5” value (RNA pol II Ser5) is reported as “significant inhibitory effect” and the IC50 (Mv4-11 cells) is reported as 4.8 nM. For the same compound, the IC50 (CDK7) was 328 nM.
